Results: the supplement of paper PMC11061612

Legend:
Assay in all cases: combination Emax (second highest fraction inhibited in the dose matrix, 72 h); higher = more inhibition; extreme values may be limits of the assay
[1] = test system: WSU-NHL (B-Cell Non-Hodgkin's Lymphoma)
Outline: (§1)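 Bliss excess equals the observed combination effect minus the expected value EA + EB − EA·EB, where EA and EB are the effects of each agent alone. Combination Emax is the second-highest inhibition within the matrix. Inhibition was scaled from CellTiter-Glo 2.0 luminescence, with 0 set by vehicle wells and 1 by blank wells, after 72 hours of two-drug dosing of cells plated in 1536-well plates.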

[2] = test system: ALL-PO (B-Lymphoblastic Leukemia)
Outline: as §1

[3] = test system: NCI-H1568 (Lung Adenocarcinoma)
Outline: as §1

[4] = test system: BE-13 (T-Lymphoblastic Leukemia)
Outline: as §1

[5] = test system: ESS-1 (Other Solid Carcinomas)
Outline: as §1

[6] = test system: HuH-7 (Hepatocellular Carcinoma)
Outline: as §1

[7] = test system: SNU-449 (Hepatocellular Carcinoma)
Outline: as §1

[8] = test system: SAS (Oral Cavity Carcinoma)
Outline: as §1

[9] = test system: NUGC-4 (Gastric Carcinoma)
Outline: as §1

[10] = test system: KMRC-20 (Kidney Carcinoma)
Outline: as §1

BPH-1 (Non-Cancerous) = test system: BPH-1 (Non-Cancerous)
Outline: as §1

[11] = test system: L-428 (Hodgkin's Lymphoma)
Outline: as §1

[12] = test system: CAL-33 (Oral Cavity Carcinoma)
Outline: as §1

A673 (Ewing's Sarcoma) = test system: A673 (Ewing's Sarcoma)
Outline: as §1

[13] = test system: HuCCT1 (Biliary Tract Carcinoma)
Outline: as §1

[14] = test system: KYAE-1 (Esophageal Adenocarcinoma)
Outline: as §1

[15] = test system: OE21 (Esophageal Squamous Cell Carcinoma)
Outline: as §1

[16] = test system: OV-56 (Ovarian Carcinoma)
Outline: as §1

GAMG (Glioblastoma) = test system: GAMG (Glioblastoma)
Outline: as §1

[17] = test system: OVCAR-5 (Ovarian Carcinoma)
Outline: as §1

| SMILES | combination Emax [1] | combination Emax [2] | combination Emax [3] | combination Emax [4] | combination Emax [5] | combination Emax [6] | combination Emax [7] | combination Emax [8] | combination Emax [9] | combination Emax [10] | combination Emax (BPH-1 (Non-Cancerous)) | combination Emax [11] | combination Emax [12] | combination Emax (A673 (Ewing's Sarcoma)) | combination Emax [13] | combination Emax [14] | combination Emax [15] | combination Emax [16] | combination Emax (GAMG (Glioblastoma)) | combination Emax [17] |
| --- | --- | --- | --- | --- | --- | --- | --- | --- | --- | --- | --- | --- | --- | --- | --- | --- | --- | --- | --- | --- |
| Cc1cc2ncnn2cc1Nc1ncc2c(n1)n(C1CCOCC1)c(=O)n2C [AZD7648] + CCN(CCO)CCCOc1ccc2c(Nc3cc(CC(=O)Nc4cccc(F)c4)[nH]n3)ncnc2c1 [AZD2811] (first compound max 10 µM, 7x7, partner max 1 µM) | 0.976 | 0.979 | 0.185 | 0.764 | 0.665 | 0.23 | 0.318 | 0.255 | 0.281 | 0.275 | 0.614 | 0.347 | 0.913 | 0.765 | 0.406 | 0.207 | 0.492 | 0.276 | 0.514 | 0.262 |
| CN(CCO)CC[C@H](CSc1ccccc1)Nc1ccc(S(=O)(=O)NC(=O)c2ccc(N3CCC([C@@H](O)c4ccccc4-c4ccc(Cl)cc4)CC3)cc2)cc1S(=O)(=O)C(F)(F)F [AZD4320] + Cc1cc2ncnn2cc1Nc1ncc2c(n1)n(C1CCOCC1)c(=O)n2C [AZD7648] (first compound max 1 µM, 7x7, partner max 10 µM) | 0.86 | 0.992 | 0.22 | 0.981 | 0.502 | 0.279 | 0.166 | 0.118 | 0.329 | 0.157 | 0.373 | 0.844 | 0.363 | 0.937 | 0.26 | 0.279 | 0.17 | 0.149 | 0.286 | 0.17 |
| CN(CCO)CC[C@H](CSc1ccccc1)Nc1ccc(S(=O)(=O)NC(=O)c2ccc(N3CCC([C@@H](O)c4ccccc4-c4ccc(Cl)cc4)CC3)cc2)cc1S(=O)(=O)C(F)(F)F [AZD4320] + CCN(CCO)CCCOc1ccc2c(Nc3cc(CC(=O)Nc4cccc(F)c4)[nH]n3)ncnc2c1 [AZD2811] (first compound max 1 µM, 7x7, partner max 1 µM) | 0.785 | 1 | 0.248 | 1 | 0.923 | 0.219 | 0.154 | 0.105 | 0.215 | 0.256 | 0.893 | 0.847 | 0.853 | 1 | 0.136 | 0.496 | 0.111 | 0.117 | 0.845 |  |
| N#Cc1cnc(Nc2cc(NC[C@H]3CNCCO3)c(C(F)(F)F)cn2)cn1 [SRA737] + O=c1[nH]cc(F)c(=O)[nH]1 [5-Fluorouracil] (first compound max 10 µM, 7x7, partner max 20 µM) | 0.965 |  |  | 0.863 | 0.927 |  | 0.293 | 0.456 |  |  |  |  |  | 0.402 | 0.839 | 0.23 |  |  | 0.315 | 0.538 |
| C[C@@H](c1ccc2nccn2c1)n1nnc2ncc(-c3cnn(C)c3)nc21 [Savolitinib] + CN(CC[C@H](CSC1=CC=CC=C1)NC2=C(C=C(C=C2)S(=O)(=O)NC(=O)C3=CC=C(C=C3)N4CCC(CC4)[C@H](C5=CC=CC=C5C6=CC=C(C=C6)Cl)O)S(=O)(=O)C(F)(F)F)CCO [AZD4320] (first compound max 1 µM, 7x7, partner max 1 µM) |  | 0.989 | 0.256 |  |  | 0.265 |  |  | 0.262 | 0.184 | 0.346 | 0.773 | 0.222 |  |  |  | 0.101 | 0.212 |  |  |
| COc1cc2ncnc(Nc3ccc(F)c(Cl)c3)c2cc1OCCCN1CCOCC1 [Gefitinib] + CC(C)n1c(=O)n(C)c2cnc3cc(F)c(-c4ccc(OCCCN5CCCCC5)nc4)cc3c21 [AZD1390] (first compound max 10 µM, 7x7, partner max 0.3 µM) | 0.337 | 0.59 | 0.318 | 0.266 | 0.153 | 0.114 | 0.249 | 0.401 | 0.481 | 0.173 | 0.556 | 0.353 | 0.42 | 0.162 | 0.389 | 0.646 | 0.499 | 0.0799 | 0.106 | 0.203 |
| N#Cc1cnc(Nc2cc(NC[C@H]3CNCCO3)c(C(F)(F)F)cn2)cn1 [SRA737] + C=CCn1c(=O)c2cnc(Nc3ccc(N4CCN(C)CC4)cc3)nc2n1-c1cccc(C(C)(C)O)n1 [AZD1775] (first compound max 10 µM, partner max 1 µM) | 0.989 |  |  | 0.993 | 1 |  | 0.562 | 0.824 |  |  |  |  |  | 0.635 | 0.812 | 0.114 |  |  | 0.726 | 0.762 |
| Cc1cc2ncnn2cc1Nc1ncc2c(n1)n(C1CCOCC1)c(=O)n2C [AZD7648] + O=C(c1cc(Cc2n[nH]c(=O)c3ccccc23)ccc1F)N1CCN(C(=O)C2CC2)CC1 [Olaparib] (first compound max 10 µM, 7x7, partner max 10 µM) | 0.71 | 0.608 | 0.212 | 0.255 | 0.402 | 0.198 | 0.0839 | 0.213 | 0.202 | 0.282 | 0.515 | 0.172 | 0.243 | 0.585 | 0.185 | 0.0816 | 0.354 | 0.103 | 0.11 | 0.231 |
| Cc1cc2ncnn2cc1Nc1ncc2c(n1)n(C1CCOCC1)c(=O)n2C [AZD7648] + COc1cc([C@@H]2c3cc4c(cc3[C@@H](O[C@@H]3O[C@@H]5CO[C@@H](C)O[C@H]5[C@H](O)[C@H]3O)[C@H]3COC(=O)[C@H]23)OCO4)cc(OC)c1O [Etoposide] (first compound max 10 µM, 7x7, partner max 10 µM) | 1 |  |  | 0.976 | 1 |  | 0.296 | 0.985 |  |  |  |  |  | 0.855 | 0.648 | 0.547 |  |  | 0.872 | 0.546 |
| Cc1cc2ncnn2cc1Nc1ncc2c(n1)n(C1CCOCC1)c(=O)n2C [AZD7648] + C=CCn1c(=O)c2cnc(Nc3ccc(N4CCN(C)CC4)cc3)nc2n1-c1cccc(C(C)(C)O)n1 [AZD1775] (first compound max 10 µM, partner max 1 µM) | 1 | 0.966 | 0.453 | 1 | 0.974 | 0.252 | 0.333 | 0.734 | 0.359 | 0.53 | 0.53 | 0.884 | 0.864 | 0.594 | 0.692 | 0.574 | 0.673 | 0.307 | 0.706 | 0.412 |
| N#Cc1cnc(Nc2cc(NC[C@H]3CNCCO3)c(C(F)(F)F)cn2)cn1 [SRA737] + CCc1c2c(nc3ccc(O)cc13)-c1cc3c(c(=O)n1C2)COC(=O)[C@]3(O)CC [SN-38] (first compound max 10 µM, 7x7, partner max 0.3 µM) | 0.994 |  |  | 0.99 | 1 |  | 0.704 | 1 |  |  |  |  |  | 0.945 | 0.847 | 0.313 |  |  | 0.878 | 0.784 |
| Cc1cc2ncnn2cc1Nc1ncc2c(n1)n(C1CCOCC1)c(=O)n2C [AZD7648] + C[C@@H]1COCCN1C2=NC(=NC(=C2)C3(CC3)[S@](=N)(=O)C)C4=C5C=CNC5=NC=C4 [AZD6738] (first compound max 10 µM, 7x7, partner max 10 µM) | 1 | 0.925 | 0.499 | 0.757 | 0.971 | 0.215 | 0.279 | 0.856 | 0.509 | 0.425 | 0.429 | 0.794 | 0.793 | 0.809 | 0.735 | 0.204 | 0.74 | 0.734 | 0.681 | 0.757 |
| CN(CCO)CC[C@H](CSc1ccccc1)Nc1ccc(S(=O)(=O)NC(=O)c2ccc(N3CCC([C@@H](O)c4ccccc4-c4ccc(Cl)cc4)CC3)cc2)cc1S(=O)(=O)C(F)(F)F [AZD4320] + CC(=O)O[C@H]1C(=O)[C@@]2(C)[C@H]([C@H](OC(=O)c3ccccc3)[C@]3(O)C[C@H](OC(=O)[C@H](O)[C@@H](NC(=O)c4ccccc4)c4ccccc4)C(C)=C1C3(C)C)[C@]1(OC(C)=O)CO[C@@H]1C[C@@H]2O [Paclitaxel] (first compound max 1 µM, 7x7, partner max 3 µM) | 1 |  |  | 1 | 1 |  | 0.414 | 0.971 |  |  |  |  |  | 1 | 0.671 | 0.587 |  |  | 1 | 0.973 |
| COc1nnc2ccc(N3CCC(c4ccc(OCCN5CCN(C)C(=O)[C@H]5C)cc4)CC3)nn12 [AZD5153] + CN(CC[C@H](CSC1=CC=CC=C1)NC2=C(C=C(C=C2)S(=O)(=O)NC(=O)C3=CC=C(C=C3)N4CCC(CC4)[C@H](C5=CC=CC=C5C6=CC=C(C=C6)Cl)O)S(=O)(=O)C(F)(F)F)CCO [AZD4320] (first compound max 1 µM, 7x7, partner max 1 µM) |  | 1 | 0.266 |  |  | 0.786 |  |  | 0.634 | 0.545 | 0.928 | 0.943 | 0.343 |  |  |  | 0.739 | 0.507 |  |  |
